Experimental data: US20100061928A1, “LABELLED ANALOGUES OF HALOBENZAMIDES AS RADIOPHARMACEUTICALS” (Institut National De La Sante et De La Recherche Medicale …, priority 2006, published 2010)

Assays:
[1] = tested on: grafted B16 F0 murine melanoma tumour; test: Biodistribution of the ^125I-labelled molecules in the melanoma-bearing mouse (autoradiography of whole-body sections); conditions: for Concentration of radioactivity, B 16 (tumour), Mean / Concentration of radioactivity, Ic (intestinal contents), Mean / Concentration of radioactivity, Sc (stomach contents), Mean / Concentration of radioactivity, blood (measured in the heart cavity), Mean / Concentration of radioactivity, kidney, Mean / Concentration of radioactivity, liver, Mean / Concentration of radioactivity, lungs, Mean / Concentration of radioactivity, muscle (skeletal muscle), Mean / Concentration of radioactivity, pancreas, Mean / Concentration of radioactivity, spleen, Mean / Concentration of radioactivity, uvea (pigmented tissues of the eye), Mean / Concentration of radioactivity, GB (gall bladder), Mean / Concentration of radioactivity, thyroid, Mean / Concentration of radioactivity, brain, Mean: ^125I-labelled compound; for tumour concentration, times higher than with BZA: at 72 hours (FIG. 1B); for tumour concentration, % of the injected dose per gram of tumour: from the first hour
tumour = test: Dosimetry with regard to the tumour (MIRD programme, extrapolated to ^131I); conditions: for Effective period: extrapolated to 131I labelling; for Biological period: from biodistribution data
[2] = Elimination of the molecules: cumulative urinary and faecal excretion 0-72 hours; format: in vivo, mouse; conditions: for Faecal elimination 0-72 hours (Faeces) / Urinary and faecal elimination 0-72 hours (Total) / Urinary elimination 0-72 hours (Urine): cumulative excretion 0-72 hours; for Faecal elimination 0-72 hours (Faeces) / Urinary elimination 0-72 hours (Urine): mice in metabolic cages; for Urinary and faecal elimination 0-72 hours (Total): urine + faeces

## CCN(CC)CCNC(=O)c1nc2ccc(I)cc2[nH]1.Cl.Cl [compound 26, N-(2-diethylaminoethyl)-5-iodobenzimidazole-2-carboxamide dihydrochloride]
[1]; 1 H after i.v. administration
  Concentration of radioactivity, B 16 (tumour), Mean: 14.78 % ID/g
  Concentration of radioactivity, Ic (intestinal contents), Mean: 105.55 % ID/g
  Concentration of radioactivity, Sc (stomach contents), Mean: 24.46 % ID/g
  Concentration of radioactivity, blood (measured in the heart cavity), Mean: 3.31 % ID/g
  Concentration of radioactivity, kidney, Mean: 6.90 % ID/g
  Concentration of radioactivity, liver, Mean: 13.08 % ID/g
  Concentration of radioactivity, lungs, Mean: 5.16 % ID/g
  Concentration of radioactivity, muscle (skeletal muscle), Mean: 0.55 % ID/g
  Concentration of radioactivity, pancreas, Mean: 6.17 % ID/g
  Concentration of radioactivity, spleen, Mean: 11.51 % ID/g
  Concentration of radioactivity, uvea (pigmented tissues of the eye), Mean: 12.87 % ID/g
[1]; 3 H after i.v. administration
  Concentration of radioactivity, B 16 (tumour), Mean: 16.13 % ID/g
  Concentration of radioactivity, GB (gall bladder), Mean: 160.60 % ID/g
  Concentration of radioactivity, Ic (intestinal contents), Mean: 72.05 % ID/g
  Concentration of radioactivity, Sc (stomach contents), Mean: 17.98 % ID/g
  Concentration of radioactivity, blood (measured in the heart cavity), Mean: 1.33 % ID/g
  Concentration of radioactivity, kidney, Mean: 4.57 % ID/g
  Concentration of radioactivity, liver, Mean: 7.15 % ID/g
  Concentration of radioactivity, lungs, Mean: 3.74 % ID/g
  Concentration of radioactivity, thyroid, Mean: 63.44 % ID/g
  Concentration of radioactivity, uvea (pigmented tissues of the eye), Mean: 24.40 % ID/g
[1]; 6 H after i.v. administration
  Concentration of radioactivity, B 16 (tumour), Mean: 9.90 % ID/g
  Concentration of radioactivity, GB (gall bladder), Mean: 38.11 % ID/g
  Concentration of radioactivity, Ic (intestinal contents), Mean: 95.86 % ID/g
  Concentration of radioactivity, Sc (stomach contents), Mean: 8.62 % ID/g
  Concentration of radioactivity, liver, Mean: 3.38 % ID/g
  Concentration of radioactivity, spleen, Mean: 14.97 % ID/g
  Concentration of radioactivity, thyroid, Mean: 34.17 % ID/g
  Concentration of radioactivity, uvea (pigmented tissues of the eye), Mean: 10.09 % ID/g
[1]; 24 H after i.v. administration
  Concentration of radioactivity, B 16 (tumour), Mean: 7.06 % ID/g
  Concentration of radioactivity, Ic (intestinal contents), Mean: 3.19 % ID/g
  Concentration of radioactivity, Sc (stomach contents), Mean: 2.32 % ID/g
  Concentration of radioactivity, thyroid, Mean: 142.88 % ID/g
  Concentration of radioactivity, uvea (pigmented tissues of the eye), Mean: 10.44 % ID/g
[1]; 72 H after i.v. administration
  Concentration of radioactivity, B 16 (tumour), Mean: 4.54 % ID/g
  Concentration of radioactivity, thyroid, Mean: 174.73 % ID/g
  Concentration of radioactivity, uvea (pigmented tissues of the eye), Mean: 7.26 % ID/g
[1]
  tumour concentration, times higher than with BZA: 6 times
  tumour concentration, % of the injected dose per gram of tumour: 14.8 % ID/g
tumour
  Effective period: 35.1 h
  Biological period: 42.9 hours
[2]
  Faecal elimination 0-72 hours (Faeces): 40.7%
  Urinary and faecal elimination 0-72 hours (Total): 57.8%
  Urinary elimination 0-72 hours (Urine): 17.1%
[2]; urine and faeces, up to 72 hours
  elimination kinetics from the body (in words): lower elimination

## CCN(CC)CCNC(=O)c1ccc2cc(I)ccc2n1.Cl.Cl [compound 31, N-(2-diethylaminoethyl)-6-iodoquinoline-2-carboxamide dihydrochloride]
[1]; 1 H after i.v. administration
  Concentration of radioactivity, B 16 (tumour), Mean: 19.63 % ID/g
  Concentration of radioactivity, Ic (intestinal contents), Mean: 15.78 % ID/g
  Concentration of radioactivity, Sc (stomach contents), Mean: 48.03 % ID/g
  Concentration of radioactivity, blood (measured in the heart cavity), Mean: 7.01 % ID/g
  Concentration of radioactivity, brain, Mean: 1.96 % ID/g
  Concentration of radioactivity, kidney, Mean: 11.82 % ID/g
  Concentration of radioactivity, liver, Mean: 10.92 % ID/g
  Concentration of radioactivity, lungs, Mean: 9.41 % ID/g
  Concentration of radioactivity, muscle (skeletal muscle), Mean: 1.79 % ID/g
  Concentration of radioactivity, pancreas, Mean: 9.80 % ID/g
  Concentration of radioactivity, spleen, Mean: 11.56 % ID/g
  Concentration of radioactivity, uvea (pigmented tissues of the eye), Mean: 32.71 % ID/g
[1]; 3 H after i.v. administration
  Concentration of radioactivity, B 16 (tumour), Mean: 25.35 % ID/g
  Concentration of radioactivity, Ic (intestinal contents), Mean: 20.65 % ID/g
  Concentration of radioactivity, Sc (stomach contents), Mean: 34.72 % ID/g
  Concentration of radioactivity, blood (measured in the heart cavity), Mean: 5.57 % ID/g
  Concentration of radioactivity, brain, Mean: 0.83 % ID/g
  Concentration of radioactivity, kidney, Mean: 12.59 % ID/g
  Concentration of radioactivity, liver, Mean: 8.89 % ID/g
  Concentration of radioactivity, lungs, Mean: 5.58 % ID/g
  Concentration of radioactivity, muscle (skeletal muscle), Mean: 1.14 % ID/g
  Concentration of radioactivity, pancreas, Mean: 6.17 % ID/g
  Concentration of radioactivity, spleen, Mean: 10.63 % ID/g
  Concentration of radioactivity, uvea (pigmented tissues of the eye), Mean: 33.10 % ID/g
[1]; 6 H after i.v. administration
  Concentration of radioactivity, B 16 (tumour), Mean: 17.21 % ID/g
  Concentration of radioactivity, Ic (intestinal contents), Mean: 23.36 % ID/g
  Concentration of radioactivity, Sc (stomach contents), Mean: 65.36 % ID/g
  Concentration of radioactivity, blood (measured in the heart cavity), Mean: 5.91 % ID/g
  Concentration of radioactivity, brain, Mean: 0.37 % ID/g
  Concentration of radioactivity, kidney, Mean: 7.60 % ID/g
  Concentration of radioactivity, liver, Mean: 7.11 % ID/g
  Concentration of radioactivity, lungs, Mean: 5.32 % ID/g
  Concentration of radioactivity, muscle (skeletal muscle), Mean: 0.95 % ID/g
  Concentration of radioactivity, spleen, Mean: 7.60 % ID/g
  Concentration of radioactivity, uvea (pigmented tissues of the eye), Mean: 36.62 % ID/g
[1]; 24 H after i.v. administration
  Concentration of radioactivity, B 16 (tumour), Mean: 12.13 % ID/g
  Concentration of radioactivity, Ic (intestinal contents), Mean: 1.45 % ID/g
  Concentration of radioactivity, Sc (stomach contents), Mean: 2.33 % ID/g
  Concentration of radioactivity, kidney, Mean: 0.34 % ID/g
  Concentration of radioactivity, liver, Mean: 2.25 % ID/g
  Concentration of radioactivity, lungs, Mean: 0.53 % ID/g
  Concentration of radioactivity, spleen, Mean: 2.66 % ID/g
  Concentration of radioactivity, uvea (pigmented tissues of the eye), Mean: 22.27 % ID/g
[1]; 72 H after i.v. administration
  Concentration of radioactivity, B 16 (tumour), Mean: 5.93 % ID/g
  Concentration of radioactivity, liver, Mean: 1.23 % ID/g
  Concentration of radioactivity, spleen, Mean: 1.85 % ID/g
  Concentration of radioactivity, uvea (pigmented tissues of the eye), Mean: 18.30 % ID/g
[1]
  tumour concentration, times higher than with BZA: 8 times
  tumour concentration, % of the injected dose per gram of tumour: 19.6 % ID/g
tumour
  Effective period: 31.8 h
  Biological period: 38.0 hours
[2]
  Faecal elimination 0-72 hours (Faeces): 11.4%
  Urinary and faecal elimination 0-72 hours (Total): 91.2%
  Urinary elimination 0-72 hours (Urine): 80.7%
[2]; urinary versus faecal, 0-72 hours
  elimination route (in words): predominantly in the urine
